In patent publication EP4792813A1, “USE OF […] PREPARATION OF DRUG FOR PREVENTING AND TREATING SEPSIS AND SEPSIS-INDUCED ORGAN DAMAGE” (Lunan Pharmaceutical Group Corporation, priority 2023, dated 2025):

Tests used:
Assay type in all cases: in vivo, C57BL/6J mice
[1] = test system: mice with LPS-induced sepsis; assay: Serum biochemical parameters (ALT, AST, UREA, CREA-S) in mice with LPS-induced sepsis; parameters: CREA-S: unit not given here; conditions: for ALT / AST / CREA-S / UREA: serum, 24 h after LPS, x±s, n = 7; for serum ALT, AST, UREA and CREA-S levels: result in words, compared with the model group
Protocol: (§1) After 1 week of acclimatization, mice were randomly divided into 8 groups: normal group, model group, positive control group, control group 1, control group 2, and compound I low-, medium- and high-dose groups, with 20 mice in each group. […] After the experiment was started, the normal group and model group were intraperitoneally injected with normal saline according to the body weight. The positive control group was intraperitoneally injected with 1 mg/kg dexamethasone. The Compound I low-, medium- and high-dose groups were intraperitoneally injected with 1 mg/kg, 2.5 mg/kg and 5 mg/kg compound I according to the body weight, respectively. The control group 1 was intraperitoneally injected with 5 mg/kg control compound 1 according to the body weight, and the control group 2 was intraperitoneally injected with 5 mg/kg control compound 2 according to the body weight. After 1 h, the normal group was intraperitoneally injected with normal saline according to the body weight, and the model group and each administration group were injected with 20 mg/kg LPS and then dissected 24 h later.
A series of operations were performed on the serum in accordance with the instructions of the kits to detect ALT, AST, UREA and CREA-S concentrations.

[2] = test system: mice with LPS-induced sepsis; assay: HE staining of kidney tissue sections in mice with LPS-induced sepsis; conditions: 24 h after intraperitoneal injection of 20 mg/kg LPS, compared with the model group, FIG. 1
Protocol: as §1
Mouse kidney tissue sections were stained using a hematoxylin-eosin (HE) staining method. First, the baked sections were dewaxed using xylene until the sections became transparent. The dewaxed sections were rinsed with ethanol to remove xylene and then rinsed with distilled water. […]

[3] = test system: mice with LPS-induced sepsis-associated encephalopathy; assay: Eight-arm maze test in mice with LPS-induced sepsis-associated encephalopathy; conditions: compared with the model group
Protocol: After 1 week of acclimatization, 60 male C57BL/6J mice were randomly divided into five groups: normal group, model group, compound I low-dose group, Compound I medium-dose group and Compound I high-dose group, with 12 mice in each group.
After the experiment was started, the normal group and model group were intraperitoneally injected with normal saline according to the body weight. The Compound I low-, medium- and high-dose groups were intraperitoneally injected with 1 mg/kg, 2.5 mg/kg and 5 mg/kg compound I, respectively. After 1 h, the normal group was intraperitoneally injected with a corresponding volume of normal saline according to the body weight of the mice, while the model group and each administration group were injected with 10 mg/kg LPS, with an administration volume of 10 mL/kg.
Behavioral tests were performed in an automated eight-arm maze. Before the experiment was started, all the mice were required to undergo acclimatization training. The food intake of the mice was restricted daily to facilitate the rapid finding and memorization of food pellets placed in the 1st, 2nd, 4th and 7th arms during the test. On day 1, an equal amount of food pellets was placed in each arm. The mice were placed in the maze and then allowed to explore freely for 300 s before acclimatization was terminated. Starting from day 2, the automatic doors were first closed, and the mice were placed in the center of the maze for 15 s. The automatic doors were then opened to release the mice for testing. The training was terminated when the time reached 300 s or the mice found the food pellets. The training was conducted for a total of five days. Working memory errors were defined as repeated entries by the mice into arms where food pellets had already been found and consumed. Reference memory errors were defined as entries into arms without food pellets. The total number of arm entries was recorded as the total arm entries. The time required for the mice to find all food pellets was defined as the test duration. On the day 7 of the experiment, a formal trial was initiated, and this step unchanged. The frequencies of working memory errors and reference memory errors were calculated based on the recorded working memory errors, reference memory errors and total arm entries.

[4] = test system: mice with LPS-induced sepsis; assay: 48 h survival rate of mice with LPS-induced sepsis; conditions: within 48 h after 20 mg/kg LPS; result in words; FIG. 2
Protocol: as §1
4.4 After 48 h, the survival rate of the remaining 10 mice in each group was observed.

[5] = test system: mice with LPS-induced sepsis-associated encephalopathy; assay: Nissl staining of hippocampus in mice with LPS-induced sepsis-associated encephalopathy; conditions: 1, 2.5 and 5 mg/kg i.p. 1 h before 25 mg/kg LPS; 24 h; compared with the model group
Protocol: (§2) After 1 week of acclimatization, 60 male C57BL/6J mice were randomly divided into five groups: normal group, model group, Compound I low-dose group, Compound I medium-dose group and Compound I high-dose group, with 12 mice per group.
(§3) After the experiment was started, the normal group and model group were intraperitoneally injected with normal saline according to the body weight. The Compound I low-, medium- and high-dose groups were intraperitoneally injected with 1 mg/kg, 2.5 mg/kg and 5 mg/kg Compound I according to the body weight, respectively. After 1 h, the normal group was intraperitoneally injected with a corresponding volume of normal saline according to the body weight of the mice, while the model group and each administration group were injected with 25 mg/kg LPS. The administration volume was 10 mL/kg. After 24 h, the mice were anesthetized with pentobarbital sodium. The skull was opened and the brain was harvested, rinsed with normal saline, blotted dry with filter paper, and weighed. The brain index was calculated based on the following formula: Brain index = brain weight/body weight × 100% [formula]
The prepared sections were dried and dewaxed, and then stained with a Nissl staining solution for 90 min. […]

[6] = test system: mice with LPS-induced sepsis-associated encephalopathy; assay: Novel object recognition test in mice with LPS-induced sepsis-associated encephalopathy; conditions: 1, 2.5 and 5 mg/kg i.p. on days 1-3, 7.5 mg/kg LPS on days 1 and 2; compared with the model group; FIG. 6
Protocol: as §2
On day 1 of the experiment, the normal group and model group were intraperitoneally injected with normal saline according to the body weight. The Compound I low-, medium- and high-dose groups were intraperitoneally injected with 1 mg/kg, 2.5 mg/kg and 5 mg/kg Compound I according to the body weight, respectively. After 1 h, the normal group was intraperitoneally injected with a corresponding volume of normal saline according to the body weight of the mice, while the model group and each administration group were injected with 7.5 mg/kg LPS. The administration volume was 10 mL/kg.
On day 2 of the experiment, the operations on day 1 were repeated. […]
The mice were individually placed in a square arena (40 × 40 × 40 cm) and allowed to move freely for 10 min. […] The time and frequency of mice contacting the objects or exploring within 2 cm of the objects (forepaws on the object, nose sniffing, or licking the object) were recorded. The preference index (PI) and discrimination index were calculated. […]

[7] = test system: mice with LPS-induced sepsis-associated encephalopathy; assay: Brain index in mice with LPS-induced sepsis-associated encephalopathy; conditions: 1, 2.5 and 5 mg/kg i.p. 1 h before 25 mg/kg LPS; 24 h; compared with the model group (p<0.01)
Protocol: as §2, §3

[8] = test system: mice with LPS-induced sepsis; assay: Serum inflammatory factors (ELISA) in mice with LPS-induced sepsis; conditions: for IL-6 / TNF-α: serum, 24 h after LPS, x±s, n = 6; for serum inflammatory factor indices: result in words, compared with the model group
Protocol: as §1
The blood samples were allowed to stand at room temperature for 1 h, followed by centrifugation at 3000 r/min to obtain serum. The serum was divided into two aliquots. One aliquot was processed in accordance with the instructions of TNF-α and IL-1β ELISA kits. Each well was measured at 450 nm using a microplate reader. The OD value of each sample was determined by subtracting the absorbance of the blank control well from the measured value. A standard curve was plotted based on the concentrations and OD values of standard samples to calculate the concentrations of the samples.

[9] = 1 mg/kg i.p. 1 h before 20 mg/kg LPS
[10] = 2.5 mg/kg i.p. 1 h before 20 mg/kg LPS
[11] = 5 mg/kg i.p. 1 h before 20 mg/kg LPS
[12] = 1, 2.5 and 5 mg/kg i.p. 1 h before 10 mg/kg LPS, best effect in medium-dose group, FIG. 5

SMILES | ALT [1, 9] | AST [1, 9] | UREA [1, 9] | ALT [1, 11] | AST [1, 11] | CREA-S [1, 11] | UREA [1, 11] | IL-6 [8, 9] | TNF-α [8, 9] | IL-6 [8, 11] | TNF-α [8, 11] | serum ALT, AST, UREA and CREA-S levels [1, 11] | serum inflammatory factor indices [8, 11] | also measured
Cn1c(C(=O)N2CCC(C(=O)Nc3cccc(Cl)c3)CC2)cc2ccccc21 [Compound I, N-(3-chlorophenyl)-1-(1-methyl-1H-indole-2-carbonyl)piperidine-4-carboxamide] | 69.44 ± 16.93 U/L | 183.40 ± 37.18 U/L | 35.56 ± 8.88 mmol/L | 59.61 ± 6.89 U/L | 137.50 ± 26.26 U/L | 20.80 ± 7.59 | 22.69 ± 10.33 mmol/L | 20.10 ± 3.28 pg | 127.00 ± 16.42 pg | 17.04 ± 2.94 pg | 14.00 ± 2.29 pg |  |  | CREA-S [1, 9]: 21.07 ± 5.89; ALT [1, 10]: 67.83 ± 19.01 U/L; AST [1, 10]: 180.20 ± 54.87 U/L; CREA-S [1, 10]: 18.64 ± 6.72; UREA [1, 10]: 26.02 ± 9.03 mmol/L; changes of renal tubules (abnormal dilation of renal tubules, atrophy of epithelial cells and lightening of cytoplasm), HE staining [2]: significantly ameliorated; frequency of reference memory errors [3, 12]: decreased; frequency of working memory errors [3, 12]: decreased; test duration ([3]; medium- and high-dose groups (2.5 and 5 mg/kg i.p.), 10 mg/kg LPS): decreased; total numbers of arm entries ([3]; medium- and high-dose groups (2.5 and 5 mg/kg i.p.), 10 mg/kg LPS, most significant reduction in medium-dose group): decreased; survival rate [4]: significantly improve the survival rate; Nissl staining of the hippocampus region of the mouse brain tissue [5]: reduced neuronal pyknosis, recovered cell morphology and normal Nissl bodies; discrimination index [6]: increased; preference index [6]: increased; brain index [7]: significantly reduced; IL-6 [8, 10]: 17.60 ± 3.20 pg; TNF-α [8, 10]: 76.30 ± 6.77 pg
O=C(Nc1cccc(Cl)c1)C1CCN(C(=O)c2ccc3ccccc3c2)CC1 [Control group 1] |  |  |  | 78.19 ± 10.95 U/L | 271.1 ± 25.31 U/L |  | 46.47 ± 4.58 mmol/L |  |  | 24.72 ± 4.03 pg | 244.20 ± 10.95 pg | no significant improvements | no significant improvements | 
O=C(c1cccc(O)c1)N1CCC(c2nc3cc(Cl)ccc3o2)CC1 [Control group 2] |  |  |  | 77.76 ± 12.51 U/L | 265.20±31.82 U/L | 43.99 ± 5.81 | 47.22 ± 3.39 mmol/L |  |  | 24.56 ± 3.56 pg | 238.20 ± 9.79 pg | no significant improvements | no significant improvements | 
C[C@@H]1C[C@H]2[C@@H]3CCC4=CC(=O)C=C[C@]4(C)[C@@]3(F)[C@@H](O)C[C@]2(C)[C@@]1(O)C(=O)CO [Positive control group, dexamethasone] | 58.94 ± 7.12 U/L | 142.8 ± 21.78 U/L | 20.69 ± 5.68 mmol/L |  |  |  |  | 16.49 ± 1.38 pg | 79.27 ± 4.86 pg |  |  |  |  | 
